The text below walks through data of US10792265B2, “Methods of treating or preventing fibrotic lung diseases” (YALE UNIVERSITY, priority 2014, dated 2020).

Series [1] deals with bleomycin-induced fibrosis in mice. Briefly: Bleomycin-induced lung fibrosis model in mice (hydroxyproline, collagen, qRT-PCR of fibrotic genes, Masson trichrome). It counts as in vivo. (Real-time PCR tracks product formation cycle by cycle.)
Series [2] has as its system alveolar epithelial cells isolated from bleomycin injured lungs. In words: Gene expression analysis in alveolar epithelial cells isolated from bleomycin injured lungs before and after T3 aerosolized delivery. Format: in vivo. An excerpt: Experiments were run to delineate a potential mechanistic pathway through which thyroid hormones exert their protective role in the development and progression of experimental lung fibrosis. […] Similar experiments were run in A549 lung adenocarcinoma cell lines before and after thyroid hormone administration.

Series [3] deals with bleomycin-induced mortality. In words: Bleomycin-induced mortality by Kaplan-Meier survival curve analysis. It counts as in vivo, mice. To be noted: bleomycin 4.5 U/kg intratracheally day 0; T3 40 μg/kg nebulized and inhaled every other day since day 7 (FIG. 5F). Here is the method:
40 μg/kg of T3 was nebulized and inhaled day 10, 12, 14, 16 after bleomycin treatment at dose of 1.5 U/kg, Saline as control. Mice were sacrificed at day 21. […] FIG. 5B: Col1a1 mRNA expression was detected by QRT-PCR (n=8 in each group). FIG. 5C: Col3a1 mRNA expression was detected by QRT-PCR. […] FIG. 5F: Bleomycin-induced mortality by Kaplan-Meier survival curve analysis. 4.5 U/kg of bleomycin was delivered intratracheally at day 0, 40 μg/kg of T3 was nebulized and inhaled every other day since day 7, saline treatment as control group.

A short description of series [4]: T3 and TSH level in the sera of treated bleomycin mice (ELISA). It counts as in vivo.
[5] abbreviates: treatment injected at day 3 after bleomycin, sacrificed day 14 (FIG. 4A).
Where [6] appears, read: treatment injected at day 7 after bleomycin, sacrificed day 14 (FIG. 4C).

Entries after “also recorded” stand apart in the source; their conditions may differ.

Regarding `CCCc1cc(=O)[nH]c(=S)[nH]1` [PTU, propylthiouracil], the “Bleomycin-induced lung fibrosis (overall severity)” value in series [1] (bleomycin 1.5 U/Kg intratracheally, PTU 100 mg/kg intraperitoneally at day 3 and day 7, sacrificed day 14) was “more severe bleomycin-induced lung fibrosis; also recorded: aggravates fibrosis”. Further, in series [1] (bleomycin 1.5 U/Kg, PTU 100 mg/kg intraperitoneally day 3 and day 7, day 14 (FIG. 3A)), the “Hydroxyproline content in the right lungs” value is “significant elevation”. Further, in series [1] (bleomycin 1.5 U/Kg, PTU 100 mg/kg intraperitoneally day 3 and day 7, day 14 (FIG. 3B)), the “Collagen content in the right lungs” value is recorded as “significant elevation”. Moreover, the Hydroxyproline measurements result in series [1] (setting [5]) and in series [1] (setting [6]) was “significant increase” throughout.

In the case of `N[C@@H](Cc1cc(I)c(Oc2ccc(O)c(I)c2)c(I)c1)C(=O)O` [T3, (S)-2-amino-3-[4-(4-hydroxy-3-iodophenoxy)-3,5-diiodophenyl]propanoic acid], the “Gene expression in alveolar epithelial cells” value in series [2] was “upregulation of several anti-apoptotic genes”. Further, in series [3], the “Survival / bleomycin-induced mortality (Kaplan-Meier)” value is on record as “significant increase in survival; also recorded: reduces mortality”. For the same compound, the “Bleomycin-induced fibrosis (overall)” value in series [1] (T3 40 μg/kg nebulized and inhaled day 10, 12, 14, 16 after bleomycin 1.5 U/kg, sacrificed day 21) is given as “blunts bleomycin-induced fibrosis”. Besides, the Hydroxyproline content result in series [1] (T3 inhalation 40 μg/kg day 10, 12, 14, 16 after bleomycin 1.5 U/kg, day 21 (FIG. 5A)) was “statistically significant blunting; also recorded: declines hydroxyproline content”. In series [4] (after T3 inhalation 40 μg/kg in bleomycin mice, n=10 (FIG. 5D)), the “T3 level in the sera by ELISA” value is given as “does not affect the level of T3”.

With `N[C@@H](Cc1cc(I)c(Oc2cc(I)c(O)c(I)c2)c(I)c1)C(=O)O` [T4, (S)-2-amino-3-[4-(4-hydroxy-3,5-diiodophenoxy)-3,5-diiodophenyl]propanoic acid], the “Pulmonary fibrosis / fibrotic process (fibrotic markers and structural changes)” value in series [1] (T4 after bleomycin instillation, intraperitoneal, 40 mg/kg or 50 mg/kg, sacrificed day 14) was “significant attenuation of the fibrotic process; also recorded: attenuates the pulmonary fibrosis”. Also, the “Gene expressions of Col1a1, Col3a1, S100a4 and Acta2 (QRT-PCR)” value in series [1] (T4 injected at day 3 after bleomycin, n=8, p<0.05 (FIG. 4B)) is given as “markedly suppresses”; in series [1] (T4 injected at day 7 after bleomycin, n=8, p<0.05 (FIG. 4D)), “significantly suppresses”. For the same compound, the “Fibrotic and inflammatory response to bleomycin, histological examination by masson trichrome staining” value in series [1] (T4 treatment at either day 3 or day 7 (FIG. 4G)) is recorded as “attenuated”. In addition, the Hydroxyproline measurements entry in series [1] (setting [5]) and in series [1] (setting [6]) was “no statistically significant reduction; also recorded: no statistical difference in the T4 treated group from the saline group” throughout. Besides, the “Circulating levels of T3” value in series [4] (after T4 systemic administration in bleomycin mice, n=10, p<0.05 (FIG. 4E)) is recorded as “statistically significant increase”.
